This is an account of results in patent publication US4933369A, “Dimethyl tyrosyl amide sulfides, sulfoxides and sulfones” (G. D. Searle & Co., priority 1988, dated 1990).

The target of assay [1] is opiate receptors isolated from rat brain. Kind of assay: Opiate binding assay (displacement of 3H-Naloxone). The note with it: 3H-Naloxone 1NM, rat brain membranes, pH 7.4, 25° C., 60 min. As for the experimental part:
(§1) The test compounds were evaluated for their ability to displace the binding of ^3 H-Naloxone to opiate receptors isolated from rat brain. Male rats (Crl:CD)(SD)(BR) obtained from Charles River Laboratories (Portage, Mich.) were sacrificed by cervical dislocation. A purified homogenate of receptor membranes was prepared from the brains according to the method described by Chang and Cuatrecasas. Multiple Opiate Receptors: Enkephalins and Morphine Bind to Receptors of Different Specificity. J. Biol. Chem. 254, 2610-2618 (1979). The brains were homogenized in ten volumes of 0.32 M sucrose and centrifuged twice at 6,000×g for fifteen minutes. Following centrifugation of the supernatants at 40,000×g for thirty minutes, the pellets were resuspended in 5 mM tris HCl, and centrifuged at 6,000×g. The supernatant was centrifuged at 40,000×g. The resuspension in 5 mM tris and centrifugation was repeated twice. The final pellet was resuspended in two volumes of 50 mM tris HCl, (pH 7.4). The homogenate was assayed for protein content according to the method of Itzhaki and Gill (R. E. Itzhaki and D. N. Gill. A Micro-Biuret Method for Estimating proteins Anal. Biochem. 9, 401-410, 1964).
The binding of the test compounds to the receptor membrane preparation was measured using a modification of the method of Pert and Snyder (C. B. Pert and S. H. Snyder. Property of Opiate-Receptor Binding in Rat Brain. Proc. Natl. Acad. Sci. 70, 2243-2247, 1973). The receptor assay was run using a final concentration of 1NM^3 H-Naloxone and 0.5 mg/ml of homogenate protein. Levorphanol (1×10^-5 M) was used as the displacer for non-specific binding. The final concentration of the test compounds was 10^-5 M) The assay was run in 0.05 M tris HCl (pH 7.4). Total assayed volume was 1.0 ml.
Samples were incubated at 25° C. for sixty minutes, filtered over Whatman GF/C glass fiber filters and rinsed twice with 2.4 ml washes of ice-cold buffer. The filters were air dried at 50° C. for thirty minutes. After drying, 10 ml of PCS was added to the vial and radioactivity determined using a Tracore Analytic Mark III liquid scintillation counter with a counting efficiency of 48%.
The IC50 values, the concentration of the test compounds which inhibited ^3 H-Naloxone specific binding to the opiate receptor by 50%, were obtained from log-logit plots of concentration-response curves.

The next assay relates to mouse. Kind of assay: Writhing assay (phenylbenzoquinone-induced writhing, analgesia). Type of assay: in vivo, Male Charles River albino mice (CD-1/HAM/lLR). Also noted: key: +: The test compound was rated active if the number of writhes in the drug treatment group was significantly less than the number of writhes in the saline treatment group as determined by a one-way analysis of variance. The settings on record: 30 min before phenylbenzoquinone, initial test dose 2 mg/kg. On the procedure:
Male Charles River albino mice (CD-1/HAM/lLR) weighing between 20 and 30 grams were used. Thirty minutes after subcutaneous or intragastric administration of the test compound (0.1 ml/10 gm body weight), 0.025% (w/x) phenylbenzoquinone was injected intraperitoneally (0.1 ml/10 gm body weight). Five minutes later, each mouse was placed in a large glass beaker and the number of writhes that occurred in the subsequent ten minutes is counted. A writhe consisted of dorsoflexion of the back, extension of the hind limbs and strong contraction of the abdominal musculature. The test compound was considered to have produced analgesia in a mouse if the number of writhes elicited by phenylbenzoguinone was equal to or less than 1/2 the median number of writhes recorded for the saline-treated group that day. The results were expressed as the number of mice (out of a possible 10) in which the test compound produced analgesia. […] If the initial test dose of 2 mg/kg inhibited writhing in greater than six out of ten mice, the effect of additional doses was evaluated and an ED50 value was calculated using a maximum likelihood function.
(Writhing tests count abdominal constrictions after an irritant is injected.)

Assay [2] concerns the target T1, opiate receptors isolated from rat brain (Rattus norvegicus, UniProt P33535).
T1 construct: A purified homogenate of receptor membranes was prepared from the brains; from tissue; host or cells: brain membranes of male Crl:CD(SD)BR rats (animals from Charles River Laboratories)
Kind of assay: Opiate binding assay with (D)Ala^2Glyol^5 Enkephlin as radioactive ligand. As for the experimental part:
as §1, with “Male” for “The test compounds were evaluated for their ability to displace the binding of ^3 H-Naloxone to opiate receptors isolated from rat brain. Male”, “The final pellet was resuspended in two volumes of 50 mM tris HCl, (pH 7.4). The homogenate was assayed for protein content according to the method of Itzhaki and Gill (R. E. Itzhaki and D. N. Gill. A Micro-Biuret Method for Estimating proteins Anal. Biochem. 9, 401-410, 1964).” left out
The binding of the test compounds to the receptor membrane preparation was measured using a modification of the method of Pert and Snyder (C. B. Pert and S. H. Snyder. Property of Opiate-Receptor Binding in Rat Brain. Proc. Natl. Acad. Sci. 70, 2243-2247, 1973). […]
Samples were incubated at 25° C. for sixty minutes, filtered over Whatman GF/C glass fiber filters and rinsed twice with 2.4 ml washes of ice-cold buffer. […] After drying, 10 ml of PCS was added to the vial and radioactivity determined using a Tracore Analytic Mark III liquid scintillation counter with a counting efficiency of 48%. […]

T1 sequence (P33535 whole entry): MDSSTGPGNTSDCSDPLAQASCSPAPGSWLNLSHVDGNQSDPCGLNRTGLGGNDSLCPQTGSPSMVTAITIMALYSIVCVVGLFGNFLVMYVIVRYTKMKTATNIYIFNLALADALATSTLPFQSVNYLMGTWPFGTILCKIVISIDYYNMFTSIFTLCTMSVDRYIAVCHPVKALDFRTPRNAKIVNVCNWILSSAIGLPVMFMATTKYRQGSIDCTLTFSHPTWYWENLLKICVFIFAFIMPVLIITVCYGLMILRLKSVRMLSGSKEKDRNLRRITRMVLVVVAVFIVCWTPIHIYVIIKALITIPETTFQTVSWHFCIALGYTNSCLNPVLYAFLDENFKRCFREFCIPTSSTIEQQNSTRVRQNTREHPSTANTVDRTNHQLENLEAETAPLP

In assay [1], `Cc1cc(O)cc(C)c1CC(N)C(=O)NCCSCCCc1ccccc1` (racemic) [Example 2, (±)α-amino-4-hydroxy-2,6-dimethyl-N-[2-[(3-phenylpropyl)thio]ethyl]benzenepropanamide] gave an IC50 of 2.2 nM.
In turn, `Cc1cc(O)cc(C)c1CC(N)C(=O)NCCS(=O)(=O)CCCc1ccccc1` (racemic) [Example 3, (±)α-amino-4-hydroxy-2,6-dimethyl-N-[2-[(3-phenylpropyl)sulfonyl]ethyl]benzenepropanamide] had an IC50 in assay [1] of 0.8 nM. In the assay on mouse, the “ACTIVE (writhing assay, subcutaneous dosing)” value (shortened to “ACTIVE”) is “+”.
The compound `Cc1cc(O)cc(C)c1CC(N)C(=O)NCC[S+]([O-])CCCc1ccccc1` (racemic) [Example 4, (±)α-amino-4-hydroxy-2,6-dimethyl-N-[2-[(3-phenylpropyl)sulfinyl]ethyl]benzenepropanamide] returned an IC50 in assay [1] of 2.8 nM. Also, in the assay with mouse, the “ACTIVE” value is given as “+”.
With `Cc1cc(O)cc(C)c1CC(N)C(=O)NCCCSCCc1ccccc1` (racemic) [Example 5, (±) α-2,6-dimethyl-N-[3-[(2-phenylethyl)thio]propyl]benzenepropanamide], the IC50 in assay [2] was 3.6 nM. Besides, in the assay on mouse, the “ACTIVE” value is “+”.
The compound `Cc1cc(O)cc(C)c1CC(N)C(=O)NCCCS(=O)(=O)CCc1ccccc1` (racemic) [Example 6, (±)α-amino-4-hydroxy-2,6-dimethyl-N-[3-[(2-phenylethyl)sulfonyl]-propyl]benzenepropanamide] returned an IC50 in assay [1] of 0.9 nM.
In turn, `Cc1cc(O)cc(C)c1CC(N)C(=O)NCCCSCc1ccccc1` (racemic) [Example 7, (±)α-amino-4-hydroxy-2,6-dimethyl-N-[3-[(phenylmethyl)thio]propyl]benzenepropanamide] showed an IC50 in assay [1] of 21 nM. The “ACTIVE” value in the assay on mouse is given as “+”.
For the compound `Cc1cc(O)cc(C)c1CC(N)C(=O)NCCCCSCc1ccccc1` (racemic) [Example 8, (±)α-amino-4-hydroxy-2,6-dimethyl-N-[4-(phenylmethyl)thio]butyl]benzenepropanamide], the “ACTIVE” value with mouse is on record as “+”.
With `Cc1cc(O)cc(C)c1C[C@H](N)C(=O)NCCCSc1ccccc1` [Example 9, (L)α-amino-4-hydroxy-2,6-dimethyl-N-[3-(phenylthio)propyl]benzenepropanamide], in assay [2], the IC50 was found to be 20.9 nM.

As a reminder, the IC50 is the midpoint of a concentration-inhibition curve.
